# According to ChEMBL document CHEMBL5365437, “Cannabinoformins: Designing Biguanide-Embedded, Orally Available, Peripherally Selective Cannabinoid-1 Receptor Antagonists for Metabolic Syndrome Disorders” (J Med Chem, 2023):
# pIC50, pKi: −log10 of the molar value. Active and inactive are the calls of the source. The rule behind the calls is not given here.
# What was measured:
# Cannabinoid receptor 1 [1] = target: T1, Cannabinoid receptor 1 (Mus musculus, UniProt P47746); assay: Antagonist activity at CB1 receptor in mouse brain membrane assessed as inhibition of […]-induced GTPgammaS binding by [35S]GTPgammaS binding analysis; format: functional, cell membranes
# [2] = target: T2, AMP-activated protein kinase (AMPK) alpha-1/beta-1/gamma-1 (Homo sapiens) (UniProt P54619+Q9Y478+Q13131); assay: Activation of recombinant AMPK alpha1/beta1/gamma1 (unknown origin) at 10 uM relative to control; format: protein-complex assay; settings: filed as activator
# [3] = target: T2, AMP-activated protein kinase (AMPK) alpha-1/beta-1/gamma-1 (Homo sapiens); assay: Activation of recombinant AMPK alpha1/beta1/gamma1 (unknown origin) at 1 uM relative to control; format: protein-complex assay; settings: filed as activator
# [4] = Toxicity in C57BL/6J mouse assessed as induction of anxiety by measuring reduction in time spent in open arms at 3 mg/kg, po measured after 1 hr by elevated plus maze test; format: organism-based; settings: in vivo
# Mus musculus [5] = assay: In vivo antagonist activity at CB1 receptor in C57BL/6J mouse assessed as inhibition of ACEA-induced reduction of upper GI motility at 10 mg/kg, po administered with CB1 agonist, ACEA and 30 mins later treated with compound and measured after 30 mins; format: functional, organism-based
# [6] = Toxicity in C57BL/6J mouse assessed as induction of anxiety by measuring increase in time spent in closed arms at 3 mg/kg, po measured after 28 days by elevated plus maze test; format: organism-based; settings: in vivo, 672 h, time 28 day
# [7] = Toxicity in C57BL/6J mouse assessed as induction of anxiety by measuring increase in time spent in closed arms at 3 mg/kg, po measured after 1 hr by elevated plus maze test; format: organism-based; settings: in vivo
# [8] = Toxicity in C57BL/6J mouse assessed as induction of anxiety by measuring reduction in time spent in open arms at 3 mg/kg, po measured after 28 days by elevated plus maze test; format: organism-based; settings: in vivo, 672 h, time 28 day
# [9] = Drug uptake in C57BL/6J mouse liver at 10 mg/kg, po measured after 1 hr by LC-MS/MS analysis; format: ADME, organism-based; settings: read-out: Drug uptake
# [10] = Drug uptake in C57BL/6J mouse plasma at 10 mg/kg, po measured after 1 hr by LC-MS/MS analysis; format: ADME, organism-based
# [11] = Drug uptake in C57BL/6J mouse brain at 10 mg/kg, po measured after 1 hr by LC-MS/MS analysis; format: ADME, organism-based; settings: read-out: Drug uptake
# Cannabinoid receptor 1 [12] = target: T1, Cannabinoid receptor 1; assay: Displacement of [3H][…] from CB1 receptor in mouse brain plasma membrane by radioligand displacement analysis; format: cell membranes
# Cannabinoid receptor 2 = Cannabinoid receptor 2 (Homo sapiens, UniProt P34972); assay: Displacement of [3H][…] from CB2 receptor (unknown origin) expressed in CHO-K1 cells by radioligand displacement analysis; format: cell-based
# Mus musculus [13] = assay: In vivo activation of AMPK in C57BL/6J mouse assessed as increase in AMPK phosphorylation at Thr172 residue in liver at 0.1 to 3 mg/kg, po measured after 2 to 4 hrs by western blot analysis; format: functional, organism-based; settings: dose 0.1-3 mg/kg, time 2-4 hrs
# [14] = Cmax in C57BL/6J mouse serum at 10 mg/kg, po by LC-MS/MS analysis; format: ADME, organism-based; set-up: dose 10 mg/kg, route po
# [15] = Genotoxicity against Salmonella typhimurium TA100 in absence of S9 metabolic activation at 125 ug/ml by Ames test; format: toxicity; settings: salmonella enterica subsp. enterica serovar typhimurium, dose 125 µg/ml
# [16] = Bound fraction in mouse plasma
# [17] = Tmax in C57BL/6J mouse serum at 10 mg/kg, po by LC-MS/MS analysis; format: ADME, organism-based
# Mus musculus [18] = assay: Increase in fat oxidation in CB1-knock out mouse at 30 mg/kg, po measured for 24 hrs; format: functional, organism-based
# Mus musculus [19] = assay: Modulation of metabolic parameters in diet-induced obesity C57BL/6J mouse model assessed as reduction in food intake at 10 mg/kg, po for 1 week; format: functional, organism-based; settings: time 1.0 weeks
# Mus musculus [20] = assay: Modulation of metabolic parameters in diet-induced obesity C57BL/6J mouse model assessed as improvement in insulin sensitivity at 10 mg/kg, po for 1 week by insulin sensitivity test; format: functional, organism-based; settings: time 1.0 weeks
# [21] = Half life in mouse; format: ADME, organism-based; settings: in vivo
# Mus musculus [22] = assay: In vivo antagonist activity at CB1 receptor in C57BL/6J mouse assessed as inhibition of ACEA-induced reduction of upper GI motility at 3 to 10 mg/kg, po administered with CB1 agonist, ACEA and 30 mins later treated with compound and measured after 30 mins; format: functional, organism-based; settings: dose 3-10 mg/kg
# [23] = Half life in human; format: ADME
# [24] = Lipophilicity, logD of compound at pH 7.4; format: physicochemical; settings: buffer
# [25] = Genotoxicity against Salmonella typhimurium TA100 in presence of S9 metabolic activation at 125 ug/ml by Ames test; format: toxicity; settings: salmonella enterica subsp. enterica serovar typhimurium, dose 125 µg/ml
# Mus musculus [26] = assay: Modulation of metabolic parameters in diet-induced obesity C57BL/6J mouse model assessed as improvement in glucose tolerance at 10 mg/kg, po for 1 week by glucose tolerance test; format: functional, organism-based; settings: time 1.0 weeks
# [27] = Toxicity in C57BL/6J mouse assessed as induction of anxiety by measuring reduction in time spent in open arms at 10 mg/kg, po measured after 1 hr by elevated plus maze test; format: organism-based; settings: in vivo
# [28] = target: Voltage-gated inwardly rectifying potassium channel KCNH2 (Homo sapiens, UniProt Q12809); assay: Inhibition of hERG; format: toxicity
# [29] = Toxicity in C57BL/6J mouse assessed as induction of anxiety by measuring increase in time spent in closed arms at 10 mg/kg, po measured after 28 days by elevated plus maze test; format: organism-based; settings: in vivo, 672 h, time 28 day
# Mus musculus [30] = assay: In vivo activation of AMPK in C57BL/6J mouse assessed as increase in AMPK phosphorylation at Thr172 residue in liver at 10 mg/kg, po measured after 2 to 4 hrs by western blot analysis; format: functional, organism-based; settings: time 2-4 hrs
# [31] = Genotoxicity against Salmonella typhimurium TA98 in presence of S9 metabolic activation at 125 ug/ml by Ames test; format: toxicity; settings: salmonella enterica subsp. enterica serovar typhimurium, dose 125 µg/ml
# [32] = Half life in C57BL/6J mouse serum at 10 mg/kg, po by LC-MS/MS analysis; format: ADME, organism-based
# [33] = Toxicity in C57BL/6J mouse assessed as induction of anxiety by measuring reduction in time spent in open arms at 10 mg/kg, po measured after 28 days by elevated plus maze test; format: organism-based; settings: in vivo, 672 h, time 28 day
# [34] = Toxicity in C57BL/6J mouse assessed as induction of anxiety by measuring increase in time spent in closed arms at 10 mg/kg, po measured after 1 hr by elevated plus maze test; format: organism-based; settings: in vivo
# [35] = Bound fraction in human plasma
# Mus musculus [36] = assay: Modulation of metabolic parameters in diet-induced obesity C57BL/6J mouse model assessed as reduction in body weight at 10 mg/kg, po for 1 week; format: functional, organism-based; settings: time 1.0 weeks
# T1 sequence (P47746 whole entry): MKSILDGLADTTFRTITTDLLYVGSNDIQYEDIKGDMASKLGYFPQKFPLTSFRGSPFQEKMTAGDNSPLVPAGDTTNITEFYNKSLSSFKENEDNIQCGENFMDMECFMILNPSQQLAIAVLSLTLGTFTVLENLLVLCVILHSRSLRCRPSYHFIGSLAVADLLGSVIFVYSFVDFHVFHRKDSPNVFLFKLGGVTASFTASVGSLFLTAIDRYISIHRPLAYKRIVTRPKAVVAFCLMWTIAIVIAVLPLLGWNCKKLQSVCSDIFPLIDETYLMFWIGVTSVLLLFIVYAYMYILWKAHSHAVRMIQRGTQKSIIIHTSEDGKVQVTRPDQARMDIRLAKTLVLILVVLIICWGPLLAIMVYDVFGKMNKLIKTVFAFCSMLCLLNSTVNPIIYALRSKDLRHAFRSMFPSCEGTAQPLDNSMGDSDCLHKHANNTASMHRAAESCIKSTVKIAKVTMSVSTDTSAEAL
# T2 sequence (P54619 whole entry): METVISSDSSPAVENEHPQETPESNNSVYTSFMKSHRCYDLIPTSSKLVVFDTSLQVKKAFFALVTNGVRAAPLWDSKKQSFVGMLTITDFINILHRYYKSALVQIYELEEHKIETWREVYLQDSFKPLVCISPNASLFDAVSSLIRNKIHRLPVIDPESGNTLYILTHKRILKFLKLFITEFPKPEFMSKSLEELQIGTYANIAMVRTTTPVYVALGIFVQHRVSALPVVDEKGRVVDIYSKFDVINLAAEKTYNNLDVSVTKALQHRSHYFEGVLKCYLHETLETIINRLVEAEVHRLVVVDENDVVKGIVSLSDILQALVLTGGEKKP
# T2 sequence (Q13131 whole entry partner): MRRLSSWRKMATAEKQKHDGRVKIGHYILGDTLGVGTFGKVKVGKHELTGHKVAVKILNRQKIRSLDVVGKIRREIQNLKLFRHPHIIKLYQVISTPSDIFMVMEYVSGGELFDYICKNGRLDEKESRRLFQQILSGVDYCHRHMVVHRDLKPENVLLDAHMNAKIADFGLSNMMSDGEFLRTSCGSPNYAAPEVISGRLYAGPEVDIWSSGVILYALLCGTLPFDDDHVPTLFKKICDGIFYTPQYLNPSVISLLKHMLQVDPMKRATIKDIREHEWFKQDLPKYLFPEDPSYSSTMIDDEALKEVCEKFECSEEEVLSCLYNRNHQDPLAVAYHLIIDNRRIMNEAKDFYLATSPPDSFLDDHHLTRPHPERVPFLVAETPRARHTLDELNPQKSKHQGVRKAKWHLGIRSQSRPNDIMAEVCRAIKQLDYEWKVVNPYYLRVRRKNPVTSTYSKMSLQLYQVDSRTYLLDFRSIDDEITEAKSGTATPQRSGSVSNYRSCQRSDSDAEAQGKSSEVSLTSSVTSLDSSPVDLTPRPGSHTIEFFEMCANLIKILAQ
# T2 sequence (Q9Y478 2-270 partner limits assumed): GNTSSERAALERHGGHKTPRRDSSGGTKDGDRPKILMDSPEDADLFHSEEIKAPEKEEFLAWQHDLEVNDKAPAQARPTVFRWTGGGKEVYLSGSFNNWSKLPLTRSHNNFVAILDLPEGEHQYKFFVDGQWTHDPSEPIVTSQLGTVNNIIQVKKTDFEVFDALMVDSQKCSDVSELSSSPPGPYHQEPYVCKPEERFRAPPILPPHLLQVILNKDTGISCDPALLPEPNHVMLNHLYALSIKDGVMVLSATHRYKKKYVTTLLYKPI
# Chain of Cannabinoid receptor 2 (P34972 whole entry): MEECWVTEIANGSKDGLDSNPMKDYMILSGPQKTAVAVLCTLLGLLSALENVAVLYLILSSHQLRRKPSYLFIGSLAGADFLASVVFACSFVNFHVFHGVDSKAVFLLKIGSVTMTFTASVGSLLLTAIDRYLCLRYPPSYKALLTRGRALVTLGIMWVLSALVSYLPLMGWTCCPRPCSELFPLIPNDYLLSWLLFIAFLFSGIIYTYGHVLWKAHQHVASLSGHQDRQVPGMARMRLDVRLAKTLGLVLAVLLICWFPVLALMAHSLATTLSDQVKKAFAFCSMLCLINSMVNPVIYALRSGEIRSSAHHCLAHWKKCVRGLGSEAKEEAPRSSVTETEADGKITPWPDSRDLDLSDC
# Chain of Voltage-gated inwardly rectifying potassium channel KCNH2 (Q12809 whole entry): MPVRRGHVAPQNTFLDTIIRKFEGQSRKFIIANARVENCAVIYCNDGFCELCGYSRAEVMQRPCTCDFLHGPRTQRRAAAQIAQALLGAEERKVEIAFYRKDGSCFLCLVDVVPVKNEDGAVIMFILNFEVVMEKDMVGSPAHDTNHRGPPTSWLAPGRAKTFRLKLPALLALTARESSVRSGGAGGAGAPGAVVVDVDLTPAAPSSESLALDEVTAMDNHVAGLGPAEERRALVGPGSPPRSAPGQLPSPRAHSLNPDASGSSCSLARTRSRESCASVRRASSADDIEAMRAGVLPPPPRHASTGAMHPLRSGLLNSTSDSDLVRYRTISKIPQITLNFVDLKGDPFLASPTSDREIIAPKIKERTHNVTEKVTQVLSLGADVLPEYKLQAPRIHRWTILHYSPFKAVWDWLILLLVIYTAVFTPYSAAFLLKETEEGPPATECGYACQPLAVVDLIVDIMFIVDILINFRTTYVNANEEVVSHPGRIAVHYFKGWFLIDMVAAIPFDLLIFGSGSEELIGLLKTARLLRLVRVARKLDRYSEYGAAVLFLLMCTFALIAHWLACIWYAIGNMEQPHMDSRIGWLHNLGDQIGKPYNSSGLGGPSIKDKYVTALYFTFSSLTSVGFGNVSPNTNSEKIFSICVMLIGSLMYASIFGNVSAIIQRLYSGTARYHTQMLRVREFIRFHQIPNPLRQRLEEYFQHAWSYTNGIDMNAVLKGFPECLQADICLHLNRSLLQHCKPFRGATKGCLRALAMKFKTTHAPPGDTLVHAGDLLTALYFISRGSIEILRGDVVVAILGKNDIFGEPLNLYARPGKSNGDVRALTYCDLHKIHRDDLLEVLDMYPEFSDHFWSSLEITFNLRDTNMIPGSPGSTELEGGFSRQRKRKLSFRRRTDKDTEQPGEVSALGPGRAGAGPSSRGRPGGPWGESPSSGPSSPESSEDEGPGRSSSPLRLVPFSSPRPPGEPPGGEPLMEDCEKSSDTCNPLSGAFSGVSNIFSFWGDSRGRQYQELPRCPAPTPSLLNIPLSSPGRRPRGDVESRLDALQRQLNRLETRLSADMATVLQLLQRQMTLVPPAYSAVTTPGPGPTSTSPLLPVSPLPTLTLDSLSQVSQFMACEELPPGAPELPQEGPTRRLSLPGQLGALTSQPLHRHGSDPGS
smiles,measurement,setting,value
CC(C)(N/C(N)=N/C(=N/S(=O)(=O)c1ccc(Cl)cc1)N1CC(c2ccccc2)C(c2ccc(Cl)cc2)=N1)c1ccccc1 (stereo not drawn),pIC50,Cannabinoid receptor 1 [1],7.08
same,Activity,[2],100%
same,Activity,[3],100%
Cc1c(C(=O)NN2CCCCC2)nn(-c2ccc(Cl)cc2Cl)c1-c1ccc(Cl)cc1 [RIMONABANT],Activity,[4],Toxic
same,Activity,Mus musculus [5],Active
same,Activity,[6],Toxic
same,Activity,[2],101%
same,Activity,[7],Toxic
same,Activity,[8],Toxic
same,Activity,[3],101%
CC(C)(C)OC(=O)N/C(N)=N/C(=N/S(=O)(=O)c1ccc(Cl)cc1)N1CC(c2ccccc2)C(c2ccc(Cl)cc2)=N1 (stereo not drawn),concentration at 1 h,[9],16600 ng/g
same,pIC50,Cannabinoid receptor 1 [1],8.03
same,Activity,[2],101%
same,concentration at 1 h,[10],2260 ng/mL
same,concentration at 1 h,[11],104 ng/g
same,Activity,[3],101%
CC(=O)N/C(N)=N/C(=N/S(=O)(=O)N1CCC(F)(F)CC1)N1CC(c2ccccc2)C(c2ccc(Cl)cc2)=N1 (stereo not drawn),pKi,Cannabinoid receptor 1 [12],9.15
same,pIC50,Cannabinoid receptor 1 [1],8.70
same,concentration at 1 h,[10],26 ng/mL
same,concentration at 1 h,[11],4 ng/g
same,Activity,[3],142%
CC(=O)N/C(N)=N/C(=N/S(=O)(=O)N1CCC(C(F)(F)F)CC1)N1C[C@H](c2ccccc2)C(c2ccc(Cl)cc2)=N1,pKi,Cannabinoid receptor 1 [12],9.30
same,pIC50,Cannabinoid receptor 1 [1],8.62
same,pKi,Cannabinoid receptor 2,7.74
same,Activity,[2],130%
CC(=O)N/C(N)=N/C(=N/S(=O)(=O)N1CCCCC1)N1CC(c2ccccc2)C(c2ccc(Cl)cc2)=N1 (stereo not drawn),pKi,Cannabinoid receptor 1 [12],8.80
same,pIC50,Cannabinoid receptor 1 [1],8.15
same,concentration at 1 h,[10],44 ng/mL
same,concentration at 1 h,[11],1.9 ng/g
same,Activity,[3],152%
CC(=O)N/C(N)=N/C(=N/S(=O)(=O)c1ccc2ccccc2c1)N1C[C@H](c2ccccc2)C(c2ccc(Cl)cc2)=N1,concentration at 1 h,[9],1640 ng/g
same,pKi,Cannabinoid receptor 1 [12],8.49
same,pIC50,Cannabinoid receptor 1 [1],8.01
same,pKi,Cannabinoid receptor 2,6.32
same,concentration at 1 h,[10],194 ng/mL
same,concentration at 1 h,[11],10 ng/g
CC(C)(C)N/C(N)=N/C(=N/S(=O)(=O)c1ccc(Cl)cc1)N1CC(c2ccccc2)C(c2ccc(Cl)cc2)=N1 (stereo not drawn),pIC50,Cannabinoid receptor 1 [1],6.64
same,Activity,[2],126%
same,Activity,[3],126%
CC(=O)NC(=N)/N=C(/NS(=O)(=O)c1ccc(C(F)(F)F)cc1)N1C[C@H](c2ccccc2)C(c2ccc(Cl)cc2)=N1,Activity,Mus musculus [13],Active
CCN(CC)/C(N)=N/C(=N/S(=O)(=O)c1ccc(Cl)cc1)N1CC(c2ccccc2)C(c2ccc(Cl)cc2)=N1 (stereo not drawn),pIC50,Cannabinoid receptor 1 [1],7.28
same,Activity,[2],113%
same,Activity,[3],113%
CC(=O)N/C(N)=N/C(=N/S(=O)(=O)c1ccc(Cl)cc1)N1C[C@H](c2ccccc2)C(c2ccc(Cl)cc2)=N1,Cmax,[14],4 µM
same,Activity,[15],Non-Toxic
same,fraction bound,[16],1
same,concentration at 1 h,[9],46700 ng/g
same,Tmax,[17],60 min
same,Activity,Mus musculus [18],Active
same,Activity,Mus musculus [19],Active
same,Activity,Mus musculus [20],Active
same,half-life,[21],7.3 min
same,Activity,Mus musculus [22],Dose-Dependent Effect
same,half-life,[23],8.1 min
same,logD,[24],4.3
same,Activity,[25],Non-Toxic
same,Activity,Mus musculus [26],Active
same,Activity,[27],Non-Toxic
same,pKi,Cannabinoid receptor 1 [12],9.09
same,pIC50,[28],< 4.00
same,Activity,[29],Non-Toxic
same,Activity,Mus musculus [30],Active
same,pIC50,Cannabinoid receptor 1 [1],8.41
same,Activity,[31],Non-Toxic
same,half-life,[32],~180 min
same,pKi,Cannabinoid receptor 2,6.32
same,Activity,[2],134%
same,concentration at 1 h,[10],3100 ng/mL
same,Activity,[33],Non-Toxic
same,Activity,[34],Non-Toxic
same,concentration at 1 h,[11],140 ng/g
same,fraction bound,[35],0.999
same,Activity,Mus musculus [36],Active
